Experimental data reported in PubChem BioAssay AID2771 (The Scripps Research Institute Molecular Screening Center, 2010).
The source made the active and inactive calls. How the calls were made is not given here.

Molecular target: Signal transducer and activator of transcription 3 (Homo sapiens) (UniProt P40763)
Assay: STAT3 inhibitors in luciferase reporter cells, late-stage follow-up, counter-screen for STAT1 inhibitor project, cell-based, luminescence, dose response (AID 2771)
Conditions: STAT3-responsive luciferase reporter cells

IC50 | SMILES
> 55.7 µM (inactive) | COc1cc2c(cc1OC)C(=O)N(Cc1nnc(-c3ccc(Cl)cc3)o1)C(=CN1CCOCC1)N2
> 55.7 µM (inactive) | O=C(c1ccc(-n2c(=S)[nH]c3ccccc3c2=O)cc1)N1CCN(C2CCCCC2)CC1
> 55.7 µM (inactive) | N#Cc1ccc(S(=O)(=O)N2CCN(C(C(=O)Nc3ccc(F)cc3)c3ccccc3)CC2)cc1 (centres undefined)
> 55.7 µM (inactive) | O=c1cc(CSc2nc3ccccc3c(=O)[nH]2)c2ccc(O)cc2o1
> 55.7 µM (inactive) | CCOC(=O)N1CCN(C(=O)c2ccc(-n3c(=S)[nH]c4ccccc4c3=O)cc2)CC1
> 55.7 µM (inactive) | CC(C(=O)Nc1ccccc1)N1CCN(S(=O)(=O)c2ccccc2)CC1 (centres undefined)
> 55.7 µM (inactive) | O=C(c1ccc(-n2c(=S)[nH]c3ccccc3c2=O)cc1)N1CCN(c2ccc(F)cc2)CC1
> 55.7 µM (inactive) | CN1CCN(C(=O)c2ccc(-n3c(=S)[nH]c4ccccc4c3=O)cc2)CC1
> 55.7 µM (inactive) | O=C(OCC1CCCCC1)c1nn(-c2ccccc2)c(=O)c2ccccc12
> 55.7 µM (inactive) | O=C(Nc1ccc(F)cc1)C(c1ccccc1)N1CCN(C(=O)c2ccccc2)CC1 (centres undefined)
> 55.7 µM (inactive) | CN(Cc1ccccc1N1CCCC1)C(=O)c1nn(-c2ccccc2)c(=O)c2ccccc12
> 55.7 µM (inactive) | O=C(Nc1ccc(Cl)c(C(F)(F)F)c1)C(c1ccccc1)N1CCN(S(=O)(=O)c2ccccc2)CC1 (centres undefined)
> 55.7 µM (inactive) | N#Cc1ccccc1S(=O)(=O)N1CCN(C(C(=O)Nc2ccc(F)cc2)c2ccccc2)CC1 (centres undefined)
> 55.7 µM (inactive) | CN(C)Cc1nc2ccccc2c(=O)n1Cc1nc(C(C)(C)C)cs1
> 55.7 µM (inactive) | CC(=O)c1ccc(S(=O)(=O)N2CCN(C(C(=O)Nc3ccc(C)cc3)c3ccccc3)CC2)cc1 (centres undefined)
> 55.7 µM (inactive) | CCC(C)c1ccc(-c2csc(CN3C(=O)c4ccccc4N/C3=C\N3CCN(C)CC3)n2)cc1 (centres undefined)
> 55.7 µM (inactive) | Cc1ccc(-n2nc(C(=O)O)c3ccccc3c2=O)cc1Cl
> 55.7 µM (inactive) | COc1cc2c(cc1OC)C(=O)N(Cc1coc(-c3ccccc3)n1)C(=CN1CCOCC1)N2
> 55.7 µM (inactive) | Cc1ccc(C)c(S(=O)(=O)N2CCN(C(C(=O)Nc3ccc(F)cc3)c3ccccc3)CC2)c1 (centres undefined)
inactive | C=C1NN(c2ccc(C(=O)N3CCC(Cc4ccccc4)CC3)cc2)C(=O)c2ccccc21
> 55.7 µM (inactive) | COc1ccc(N2CCN(C(=O)c3ccc(-n4c(=S)[nH]c5ccccc5c4=O)cc3)CC2)cc1
> 55.7 µM (inactive) | CN(C)C(=O)c1nn(-c2ccc(F)cc2)c(=O)c2ccccc12
> 18.6 µM (inactive) | O=C1c2ccccc2N/C(=C\N2CCOCC2)N1Cc1nc(-c2ccc(F)c(F)c2)cs1
> 55.7 µM (inactive) | Cc1ccc2oc(=O)cc(CSc3nc(-c4ccccc4)c4ccccc4n3)c2c1
> 55.7 µM (inactive) | O=C(c1ccc(-n2c(=S)[nH]c3ccccc3c2=O)cc1)N1CCN(c2ccccc2)CC1
> 55.7 µM (inactive) | CCOc1ccc2oc(=O)cc(CSc3nc4ccccc4c(=O)[nH]3)c2c1
> 55.7 µM (inactive) | COc1cccc(-c2csc(Cn3c(CN4CCOCC4)nc4ccccc4c3=O)n2)c1

IC50 | SMILES
> 55.7 µM (inactive) | O=C(c1ccc(-n2c(=S)[nH]c3ccccc3c2=O)cc1)N1CCN(C(=O)c2ccco2)CC1
> 55.7 µM (inactive) | CN1CCN(C=C2Nc3ccccc3C(=O)N2Cc2nc(C34CC5CC(CC(C5)C3)C4)cs2)CC1
> 55.7 µM (inactive) | Cc1ccc(-n2nc(C(=O)O)c3ccccc3c2=O)cc1C
> 55.7 µM (inactive) | O=C1c2ccccc2N/C(=C\N2CCOCC2)N1Cc1nc(-c2ccccc2F)cs1
> 55.7 µM (inactive) | O=C(O)c1nn(-c2ccc(F)cc2)c(=O)c2ccccc12
> 55.7 µM (inactive) | Cc1ccc(C)c(NC(=O)C(c2ccccc2)N2CCN(S(=O)(=O)c3ccccc3C#N)CC2)c1 (centres undefined)
> 55.7 µM (inactive) | NC(=O)c1ccc(S(=O)(=O)N2CCN(C(C(=O)Nc3ccc(F)cc3)c3ccccc3)CC2)cc1 (centres undefined)
inactive | COc1cc2c(cc1OC)C(=O)N(Cc1cc(-c3ccccc3OC)no1)C(=CN1CCOCC1)N2
> 55.7 µM (inactive) | O=C(Nc1ccc(F)cc1)C(c1ccccc1)N1CCN(S(=O)(=O)c2ccccc2)CC1 (centres undefined)
> 55.7 µM (inactive) | O=C(Nc1ccc(F)cc1)C(c1ccccc1)N1CCN(S(=O)(=O)c2ccc3c(c2)OCCO3)CC1 (centres undefined)
> 55.7 µM (inactive) | COc1ccc(C)cc1NC(=O)C(c1ccccc1)N1CCN(S(=O)(=O)c2ccc(F)cc2)CC1 (centres undefined)
> 55.7 µM (inactive) | Cc1cc2oc(=O)cc(CSc3nc4ccccc4c(=O)[nH]3)c2cc1Cl
> 55.7 µM (inactive) | CN(C)Cc1nc2ccccc2c(=O)n1Cc1nc(-c2cccc([N+](=O)[O-])c2)cs1
> 55.7 µM (inactive) | CCOC(=O)c1ccc(S(=O)(=O)N2CCN(C(C(=O)Nc3ccc(OC)c(Cl)c3)c3ccccc3)CC2)cc1 (centres undefined)
> 55.7 µM (inactive) | Cc1ccc(NC(=O)C(c2ccccc2)N2CCN(S(=O)(=O)c3ccccc3)CC2)cc1 (centres undefined)
> 55.7 µM (inactive) | O=c1c2ccccc2nc(CN2CCOCC2)n1Cc1nc(-c2ccc[nH]2)cs1
> 55.7 µM (inactive) | CN1CCN(Cc2nc3ccccc3c(=O)n2Cc2nc(-c3cccc([N+](=O)[O-])c3)cs2)CC1
> 55.7 µM (inactive) | CCC(C(=O)Nc1ccccc1)N1CCN(S(=O)(=O)c2ccc3c(c2)CCC3)CC1 (centres undefined)
> 55.7 µM (inactive) | CNC(=O)c1nn(-c2ccc(F)cc2)c(=O)c2ccccc12
> 55.7 µM (inactive) | CCOc1ccccc1NC(=O)C(c1ccccc1)N1CCN(S(=O)(=O)c2ccc(F)c(F)c2F)CC1 (centres undefined)
> 55.7 µM (inactive) | O=C(Nc1ccc(F)cc1)C(c1ccccc1)N1CCN(S(=O)(=O)c2ccc3ccccc3c2)CC1 (centres undefined)
> 55.7 µM (inactive) | COC(=O)c1nn(-c2ccc(F)cc2)c(=O)c2ccccc12
> 18.6 µM (inactive) | CC(C(=O)Nc1ccc(F)c(F)c1)N1CCN(S(=O)(=O)c2ccc(C(F)(F)F)cc2)CC1 (centres undefined)
> 55.7 µM (inactive) | CCOC(=O)Nc1ccc2c(CSc3nc4ccccc4c(=O)[nH]3)cc(=O)oc2c1
> 55.7 µM (inactive) | CCOc1ccc(-c2csc(Cn3c(CN4CCN(C)CC4)nc4ccccc4c3=O)n2)cc1
> 55.7 µM (inactive) | COc1cccc(NC(=O)C(c2ccccc2)N2CCN(S(=O)(=O)c3ccc(C)cc3)CC2)c1 (centres undefined)
> 55.7 µM (inactive) | CN1CCN(Cc2nc3ccccc3c(=O)n2Cc2nc(-c3ccccc3F)cs2)CC1
